In US11453683B1, “KRas G12D inhibitors” (Mirati Therapeutics, Inc., priority 2019, dated 2022):
Where a name gives a salt, the structure may show the parent alone.

What follows are compounds tested on KRas G12D-mediated phosphorylation of ERK (assay: Inhibition of KRas G12D-mediated phosphorylation of ERK in AGS cells). Settings: Homo sapiens; AGS cells expressing G12D, 3 hours, phospho-ERK normalized to GAPDH.
Type: cell-based
Experimental: Cells were plated in tissue culture treated 96 well plates at a density of 40,000 cells/well and allowed to attach for 12-14 hours. Diluted compounds were then added in a final concentration of 0.5% DMSO. After 3 hours, the medium was removed, 150 μL of 4.0% formaldehyde was added and the plates incubated at room temperature for 20 minutes. The plates were washed with PBS, and permeabilized with 150 μL of ice cold 100% methanol for 10 minutes. Non-specific antibody binding to the plates was blocked using 100 μL Licor blocking buffer (Li-Cor Biotechnology, Lincoln Nebr.) for 1 hour at room temperature.
The amount of phospho-ERK was determined using an antibody specific for the phosphorylated form of ERK and compared to the amount of GAPDH. Primary antibodies used for the detection were added as follows: Phospho-ERK (Cell Signaling cs-9101) diluted 1:500 and GAPDH (Millipore MAB374) diluted 1:5000 in Licor block+0.05% Tween 20. The plates were incubated for 2 hours at room temperature. The plates were washed with PBS+0.05% Tween 20.
Secondary antibodies used to visualize primary antibodies were added as follows: Anti-rabbit-680 diluted 1:1000 and Anti-mouse-800 diluted 1:1000 both in Licor block+0.05% TweeN2O, and were incubated for 1 hour at room temperature. The plates were washed with PBS+0.05% Tween 20. A 100 μL aliquot of PBS was added to each well and the plates were read on a Li-Cor Odyssey CLX plate reader.
The phospho-ERK (Thr202/Tyr204 signal was normalized to the GAPDH signal for each well and percent of DMSO control values were calculated. IC50 values were generated using a 4-parameter fit of the dose response curve

Structure (SMILES)	IC50
O=C(OC[C@H]1CC[C@@]2(COc3nc(N4CC5CCC(C4)N5)c4cnc(-c5cccc6cccc(Cl)c56)c(F)c4n3)CCCN12)N1CCCCC1 [Example 444, ((3R,7aR)-7a-(((4-(3,8-diazabicyclo[3.2.1]octan-3-yl)-7-(8-chloronaphthalen-1-yl)-8-fluoropyrido[4,3-d]pyrimidin-2-yl)oxy)methyl)hexahydro-1H-pyrrolizin-3-yl)methyl piperidine-1-carboxylate]	0.365 µM
Oc1cc(-c2ncc3c(N4C[C@H]5CC[C@@H](C4)N5)nc(OCCC(F)(F)F)nc3c2F)c2c(Cl)cccc2c1 [Example 393, 4-(4-((1R,5S)-3,8-diazabicyclo[3.2.1]octan-3-yl)-8-fluoro-2-(3,3,3-trifluoropropoxy)pyrido[4,3-d]pyrimidin-7-yl)-5-chloronaphthalen-2-ol]	7.58 µM
CN1C[C@H](OC(=O)NCCOCc2ccc(O)cc2)C[C@H]1COc1nc(N2C[C@H]3CC[C@@H](C2)N3)c2cnc(-c3cccc4cccc(Cl)c34)c(F)c2n1 [Example 260, (3R,5S)-5-(((4-((1R,5S)-3,8-diazabicyclo[3.2.1]octan-3-yl)-7-(8-chloronaphthalen-1-yl)-8-fluoropyrido[4,3-d]pyrimidin-2-yl)oxy)methyl)-1-methylpyrrolidin-3-yl (2-((4-hydroxybenzyl)oxy)ethyl)carbamate]	> 16.7 µM
Cc1cccc(-c2ncc3c(N4C[C@H]5CC[C@@H](C4)N5)nc(OCC45CCCN4CCC5)nc3c2F)c1Cl [Example 276, 4-((1R,5S)-3,8-diazabicyclo[3.2.1]octan-3-yl)-7-(2-chloro-3-methylphenyl)-8-fluoro-2-((hexahydro-1H-pyrrolizin-7a-yl)methoxy)pyrido[4,3-d]pyrimidine]	3.79 µM
OC[C@@H]1CCN1c1nc(N2C[C@H]3CC[C@@H](C2)N3)c2cnc(-c3cc(O)cc4ccccc34)c(F)c2n1 [Example 121, 4-(4-((1R,5S)-3,8-diazabicyclo[3.2.1]octan-3-yl)-8-fluoro-2-((S)-2-(hydroxymethyl)azetidin-1-yl)pyrido[4,3-d]pyrimidin-7-yl)naphthalen-2-ol 2,2,2-trifluoroacetate]	4.08 µM
COc1nc(N2C[C@H]3CC[C@@H](C2)N3)c2cnc(-c3cc(O)cc4cccc(Cl)c34)c(F)c2n1 [Example 360, 4-(4-((1R,5S)-3,8-diazabicyclo[3.2.1]octan-3-yl)-8-fluoro-2-methoxypyrido[4,3-d]pyrimidin-7-yl)-5-chloronaphthalen-2-ol]	8.35 µM
O=S1(=O)CCC(Oc2nc(N3C[C@H]4CC[C@@H](C3)N4)c3cnc(-c4cc(O)cc5ccccc45)c(F)c3n2)CC1 [Example 71, 4-((4-((1R,5S)-3,8-diazabicyclo[3.2.1]octan-3-yl)-8-fluoro-7-(3-hydroxynaphthalen-1-yl)pyrido[4,3-d]pyrimidin-2-yl)oxy)tetrahydro-2H-thiopyran 1,1-dioxide]	> 16.7 µM
COCCCN1CCC(Oc2nc(N3C[C@H]4CC[C@@H](C3)N4)c3cnc(-c4cc(O)cc5ccccc45)c(F)c3n2)CC1 [Example 41, 4-(4-((1R,5S)-3,8-diazabicyclo[3.2.1]octan-3-yl)-8-fluoro-2-((1-(3-methoxypropyl)piperidin-4-yl)oxy)pyrido[4,3-d]pyrimidin-7-yl)naphthalen-2-ol]	6.65 µM
Fc1c(-c2cccc3cccc(OC(F)F)c23)ncc2c(N3C[C@H]4CC[C@@H](C3)N4)nc(OCC34CCCN3CCC4)nc12 [Example 346, 4-((1R,5S)-3,8-diazabicyclo[3.2.1]octan-3-yl)-7-(8-(difluoromethoxy)naphthalen-1-yl)-8-fluoro-2-((tetrahydro-1H-pyrrolizin-7a(5H)-yl)methoxy)pyrido[4,3-d]pyrimidine]	1.35 µM
CC1CCc2cccc(-c3ncc4c(N5CC6CCC(C5)N6)nc(OC[C@@]56CCCN5C[C@H](F)C6)nc4c3F)c21 (stereo partly drawn) [Example 429, 4-(3,8-diazabicyclo[3.2.1]octan-3-yl)-8-fluoro-2-(((2R,7aS)-2-fluorotetrahydro-1H-pyrrolizin-7a(5H)-yl)methoxy)-7-(3-methyl-2,3-dihydro-1H-inden-4-yl)pyrido[4,3-d]pyrimidine]	1.7 µM
Fc1c(-c2cccc(Cl)c2C(F)(F)F)ncc2c(N3C[C@H]4CC[C@@H](C3)N4)nc(OCC34CCCN3CCC4)nc12 [Example 328, 4-((1R,5S)-3,8-diazabicyclo[3.2.1]octan-3-yl)-7-(3-chloro-2-(trifluoromethyl)phenyl)-8-fluoro-2-((tetrahydro-1H-pyrrolizin-7a(5H)-yl)methoxy)pyrido[4,3-d]pyrimidine]	0.897 µM
Fc1c(-c2cccc3cccc(Cl)c23)ncc2c(N3CC4CC(F)C(C3)N4)nc(OC[C@@]34CCCN3C[C@H](F)C4)nc12 (stereo partly shown) [Example 396, 7-(8-chloronaphthalen-1-yl)-8-fluoro-4-(6-fluoro-3,8-diazabicyclo[3.2.1]octan-3-yl)-2-((2-fluorotetrahydro-1H-pyrrolizin-7a(5H)-yl)methoxy)pyrido[4,3-d]pyrimidine]	8.17 µM
O=C(CCl)N1CCC(Oc2nc(N3C[C@H]4CC[C@@H](C3)N4)c3cnc(-c4cccc5cccc(Cl)c45)c(F)c3n2)CC1 [Example 163, 1-(4-((4-((1R,5S)-3,8-diazabicyclo[3.2.1]octan-3-yl)-7-(8-chloronaphthalen-1-yl)-8-fluoropyrido[4,3-d]pyrimidin-2-yl)oxy)piperidin-1-yl)-2-chloroethan-1-one bis(2,2,2-trifluoroacetate)]	> 16.7 µM
Oc1cc(-c2ncc3c(N4C[C@H]5CC[C@@H](C4)N5)nc(OCC(F)(F)F)nc3c2F)c2ccccc2c1 [Example 48, 4-(4-((1R,5S)-3,8-diazabicyclo[3.2.1]octan-3-yl)-8-fluoro-2-(2,2,2-trifluoroethoxy)pyrido[4,3-d]pyrimidin-7-yl)naphthalen-2-ol]	4.88 µM
Oc1cc(-c2ncc3c(N4C[C@H]5CC[C@@H](C4)N5)nc(OC[C@@]45CCCN4C[C@H](F)C5)nc3c2F)c2c(F)c(F)ccc2c1 [Example 246, 4-(4-((1R,5S)-3,8-diazabicyclo[3.2.1]octan-3-yl)-8-fluoro-2-(((2R,7aS)-2-fluorohexahydro-1H-pyrrolizin-7a-yl)methoxy)pyrido[4,3-d]pyrimidin-7-yl)-5,6-difluoronaphthalen-2-ol]	0.001 µM
CN1CCC[C@H]1COc1nc(N2C[C@H]3CC[C@@H](C2)N3)c2cnc(-c3cccc4ccc(F)cc34)c(F)c2n1 [Example 19, 4-((1R,5S)-3,8-diazabicyclo[3.2.1]octan-3-yl)-8-fluoro-7-(7-fluoronaphthalen-1-yl)-2-(((S)-1-methylpyrrolidin-2-yl)methoxy)pyrido[4,3-d]pyrimidine]	> 16.7 µM
Fc1ccc2cccc(-c3ncc4c(N5C[C@H]6CC[C@@H](C5)N6)nc(OCC56CCCN5CCC6)nc4c3F)c2c1Cl [Example 98, 4-((1R,5S)-3,8-diazabicyclo[3.2.1]octan-3-yl)-7-(8-chloro-7-fluoronaphthalen-1-yl)-8-fluoro-2-((tetrahydro-1H-pyrrolizin-7a(5H)-yl)methoxy)pyrido[4,3-d]pyrimidine bis(2,2,2-trifluoroacetate)]	0.389 µM
Oc1cc(-c2ncc3c(N4C[C@H]5CC[C@@H](C4)N5)nc(OC4CCOCC4)nc3c2F)c2ccccc2c1 [Example 72, 4-(4-((1R,5S)-3,8-diazabicyclo[3.2.1]octan-3-yl)-8-fluoro-2-((tetrahydro-2H-pyran-4-yl)oxy)pyrido[4,3-d]pyrimidin-7-yl)naphthalen-2-ol]	7.26 µM
Fc1c(-c2cccc3ccccc23)ncc2c(N3C[C@H]4CC[C@@H](C3)N4)nc(OCC34CCCN3CCC4)nc12 [Example 186, 4-((1R,5S)-3,8-diazabicyclo[3.2.1]octan-3-yl)-8-fluoro-7-(naphthalen-1-yl)-2-((tetrahydro-1H-pyrrolizin-7a(5H)-yl)methoxy)pyrido[4,3-d]pyrimidine]	3.38 µM
CCC#Cc1cccc2cccc(-c3ncc4c(N5C[C@H]6CC[C@@H](C5)N6)nc(OCC56CCCN5CCC6)nc4c3F)c12 [Example 242, 4-((1R,5S)-3,8-diazabicyclo[3.2.1]octan-3-yl)-7-(8-(but-1-yn-1-yl)naphthalen-1-yl)-8-fluoro-2-((tetrahydro-1H-pyrrolizin-7a(5H)-yl)methoxy)pyrido[4,3-d]pyrimidine]	> 16.7 µM
C#Cc1cccc2cncc(-c3ncc4c(N5C[C@H]6CC[C@@H](C5)N6)nc(OC[C@]56CCCN5C[C@@H](F)C6)nc4c3F)c12 [Example 204, 4-((1R,5S)-3,8-diazabicyclo[3.2.1]octan-3-yl)-7-(5-ethynylisoquinolin-4-yl)-8-fluoro-2-(((2S,7aR)-2-fluorotetrahydro-1H-pyrrolizin-7a(5H)-yl)methoxy)pyrido[4,3-d]pyrimidine]	0.307 µM
C[C@H]1CN2CCC[C@@]2(COc2nc(N3CC4CCC(C3)N4)c3cnc(-c4cccc5cccc(Cl)c45)c(F)c3n2)C1 (stereo in doubt) [Example 227, 4-((1R,5S)-3,8-diazabicyclo[3.2.1]octan-3-yl)-7-(8-chloronaphthalen-1-yl)-8-fluoro-2-((2-methyltetrahydro-1H-pyrrolizin-7a(5H)-yl)methoxy)pyrido[4,3-d]pyrimidine bis-hydrochloride]	2.98 µM
